We go through 14 compounds from ChEMBL document CHEMBL1201862, “PubChem BioAssay data set” (2004).

Each structure is given as a SMILES string.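 Values below derive from 48-hour exposures of cells grown in 96-well plates, with endpoints linearly interpolated between the two concentrations bracketing the appropriate inhibition level. The concentration for 50% growth inhibition is given as GI50.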 Calls of active or inactive are those of the source. Rule as the data show it: active = GI50 up to about 1.1 µM and inactive = higher.

Some test systems named below: SNB-78; LXFL 529; RXF 631; DLD-1; HOP-18; XF498; KM-20L2; DMS-273.
Holding throughout (assay): NCI-60 cell line screen, 48 h

Consider `CC(=O)c1ccc(NC(=O)COC(=O)c2cccc3c(=O)c4ccccc4[nH]c23)cc1`, for which the GI50 is 31.4 µM (inactive) in the experiment with SNB-78; 21.9 µM (inactive) with LXFL 529; 20.6 µM (inactive) with RXF 631; 54 µM (inactive) in the experiment with DLD-1; > 100 µM (inactive) with HOP-18; 23.1 µM (inactive) in the experiment on XF498. The GI50 with KM-20L2 was > 100 µM (inactive).

Take `CC(=O)C=C1Nc2ccccc2N1`: the GI50 in the experiment with SNB-78, with LXFL 529, in the experiment on RXF 631, in the experiment on DLD-1, with XF498 and in the experiment on KM-20L2 was > 100 µM (inactive) throughout.

On to `C[Si](C)(C)CN1C(=O)c2ccccc2C1(O)c1ccccc1` (configuration not stated), for which the GI50 with SNB-78 is > 83.9 µM (inactive); with LXFL 529 it was 93.1 µM (inactive); in the experiment on RXF 631, 88.9 µM (inactive); in the experiment with DLD-1, > 100 µM (inactive); with HOP-18, > 100 µM (inactive); with XF498, 73.8 µM (inactive). Moreover, the GI50 was > 100 µM (inactive) in the experiment on KM-20L2 and 56.6 µM (inactive) in the experiment with DMS-273.

With `Cc1cc2c(c(C#N)c1C)NC(=O)C(CC(=O)O)C2=O` (configuration not stated), the GI50 with SNB-78, with LXFL 529, in the experiment with RXF 631, in the experiment with DLD-1, with HOP-18 and in the experiment on XF498 was > 100 µM (inactive) throughout. In addition, the GI50 in the experiment with KM-20L2 and in the experiment on DMS-273 was > 100 µM (inactive) in each case.

On to `COC(=O)NN1C(C)=C(C(=O)OC)C2(CCOC2=O)C1(C)O` (configuration not stated), for which the GI50 in the experiment with SNB-78, in the experiment with LXFL 529, with RXF 631, in the experiment with DLD-1, in the experiment on HOP-18 and with XF498 was > 100 µM (inactive) throughout. Besides, the GI50 in the experiment with KM-20L2 and in the experiment on DMS-273 was > 100 µM (inactive) in each case.

Turning to `N#C/C(N)=N/c1ccccc1`, the GI50 in the experiment with LXFL 529, with RXF 631, in the experiment on DLD-1, in the experiment on HOP-18, in the experiment with KM-20L2 and with DMS-273 was > 100 µM (inactive) in each case.

On to `O=C(Cn1cc(I)c(C(=O)NCC(O)CO)n1)NCC(O)CO` (configuration not stated), for which the GI50 in the experiment with SNB-78, with LXFL 529, in the experiment with DLD-1, in the experiment with HOP-18, with XF498 and in the experiment with KM-20L2 was > 100 µM (inactive) in each case. In addition, the GI50 in the experiment on DMS-273 was > 100 µM (inactive).

Take `Cc1ccc2[nH]c(Sc3c([N+](=O)[O-])ncn3C)nc2c1`: the GI50 is 23.2 µM (inactive) in the experiment on SNB-78; > 10 µM (inactive) in the experiment on LXFL 529; 17.2 µM (inactive) in the experiment on RXF 631; 20.4 µM (inactive) in the experiment on DLD-1; 17.5 µM (inactive) in the experiment with HOP-18; 0.586 µM (active) with XF498. In addition, the GI50 is 25.6 µM (inactive) in the experiment with KM-20L2 and 12.2 µM (inactive) with DMS-273.

Turning to `O=C(O)C(C(=O)C(=O)C(C(=O)O)c1ccc(Cl)cc1)c1ccc(Cl)cc1` (configuration not stated), the GI50 in the experiment on SNB-78 was 3.27 µM (inactive); in the experiment on LXFL 529 it was 2.52 µM (inactive); in the experiment on DLD-1, 3.52 µM (inactive); in the experiment with HOP-18 it was 5.32 µM (inactive); with XF498, 2.43 µM (inactive); in the experiment on KM-20L2, 3.31 µM (inactive). Further, the GI50 with DMS-273 was 3.64 µM (inactive).

For `CCOC(=O)c1cc(/C=C/C(C)=C/C(=O)OC)n(C)c1C`, the GI50 in the experiment on SNB-78 was > 100 µM (inactive); in the experiment on LXFL 529, 91.6 µM (inactive); with RXF 631 it was > 100 µM (inactive); in the experiment with DLD-1, 67.8 µM (inactive); in the experiment with XF498 it was 93.1 µM (inactive); in the experiment on KM-20L2 it was 74 µM (inactive). For the same compound, the GI50 with DMS-273 was > 100 µM (inactive).

Consider `CCc1cccc(C)c1N1C(=O)C(=O)C(c2nc3ccccc3o2)C(=O)C1=O`, for which the GI50 in the experiment with SNB-78, in the experiment on LXFL 529, in the experiment on DLD-1, with HOP-18, in the experiment with XF498 and with KM-20L2 was > 100 µM (inactive) in each case. Besides, the GI50 with DMS-273 was > 100 µM (inactive).

Consider `O=C(O)CCN(CCCN(CCC(=O)O)CCC(=O)O)CCC(=O)O`, for which the GI50 with LXFL 529, in the experiment on RXF 631, in the experiment with DLD-1, in the experiment on HOP-18, with XF498 and in the experiment on KM-20L2 was > 100 µM (inactive) each time. The GI50 with DMS-273 was > 100 µM (inactive).

As to `CCCCCCCCCCCCCP(=O)(OC)OC`, the GI50 in the experiment with SNB-78 was 17.5 µM (inactive); with LXFL 529, 19.1 µM (inactive); in the experiment with RXF 631, 17.7 µM (inactive); with DLD-1 it was 16.1 µM (inactive); in the experiment with HOP-18, 18.1 µM (inactive); in the experiment on XF498 it was 17.9 µM (inactive). Besides, the GI50 was 26.8 µM (inactive) in the experiment with KM-20L2 and 19.1 µM (inactive) in the experiment on DMS-273.

In the case of `C[N+](C)(C)CC(=O)N/N=C(/Cc1cc(=O)oc2cc(O)ccc12)C(=O)Nc1ccc(Cl)cc1`, the GI50 in the experiment with RXF 631, in the experiment with DLD-1 and in the experiment with KM-20L2 was > 100 µM (inactive) in each case.
